Measurements reported in patent US9283222B2 (priority 2006, dated 2016).

Biological target: Recombinant Human Poly(ADP-Ribose) Polymerase (PARP), PARP-1 (Homo sapiens (Human), UniProt P09874)
Conditions: read-out: PARP-1 (Ki); Table 1; text calls the values EC50s

Sequence of Recombinant Human Poly(ADP-Ribose) Polymerase (PARP), PARP-1 (P09874 whole entry): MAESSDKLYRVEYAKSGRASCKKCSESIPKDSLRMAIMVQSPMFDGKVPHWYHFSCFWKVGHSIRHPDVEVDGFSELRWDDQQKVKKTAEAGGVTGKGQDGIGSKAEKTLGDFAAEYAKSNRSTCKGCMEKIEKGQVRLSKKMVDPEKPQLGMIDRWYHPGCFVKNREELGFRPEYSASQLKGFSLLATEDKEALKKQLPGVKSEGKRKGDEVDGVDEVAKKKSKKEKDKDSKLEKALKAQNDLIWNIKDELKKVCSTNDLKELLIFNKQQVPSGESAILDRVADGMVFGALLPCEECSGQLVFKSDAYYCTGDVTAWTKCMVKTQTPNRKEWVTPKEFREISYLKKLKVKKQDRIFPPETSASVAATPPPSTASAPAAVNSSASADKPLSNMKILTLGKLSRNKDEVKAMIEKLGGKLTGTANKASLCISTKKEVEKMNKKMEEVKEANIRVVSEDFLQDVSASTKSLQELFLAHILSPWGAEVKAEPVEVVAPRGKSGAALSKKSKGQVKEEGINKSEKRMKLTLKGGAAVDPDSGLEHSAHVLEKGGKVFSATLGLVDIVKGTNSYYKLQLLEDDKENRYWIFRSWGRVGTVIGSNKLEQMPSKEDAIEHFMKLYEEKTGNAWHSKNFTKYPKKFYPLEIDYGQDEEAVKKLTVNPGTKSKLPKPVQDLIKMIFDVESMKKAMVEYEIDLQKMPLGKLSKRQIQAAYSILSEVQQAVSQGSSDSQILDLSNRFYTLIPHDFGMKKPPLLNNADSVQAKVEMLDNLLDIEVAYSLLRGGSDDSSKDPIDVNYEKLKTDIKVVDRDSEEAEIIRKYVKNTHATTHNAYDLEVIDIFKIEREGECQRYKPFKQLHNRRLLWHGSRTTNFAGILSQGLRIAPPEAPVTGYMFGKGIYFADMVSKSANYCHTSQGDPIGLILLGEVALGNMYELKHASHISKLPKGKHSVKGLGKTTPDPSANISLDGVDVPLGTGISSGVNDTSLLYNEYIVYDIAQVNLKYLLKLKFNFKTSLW

| Ki [nM] | SMILES |
| --- | --- |
| 8 | O=C(c1cc(Cc2n[nH]c(=O)c3c2NCCC3)ccc1F)N1CCN(CCN2CCCCC2)CC1 [Example 570, 8-(4-fluoro-3-{[4-(2-piperidin-1-ylethyl)piperazin-1-yl]carbonyl}benzyl)-2,3,4,6-tetrahydropyrido[2,3-d]pyridazin-5(1H)-one] |
| 4 | O=C(c1cc(Cc2n[nH]c(=O)c3c2CCCC3)ccc1F)N1CCN(CCN2CCOCC2)CC1 [Example 571, 4-(4-fluoro-3-{[4-(2-morpholin-4-ylethyl)piperazin-1-yl]carbonyl}benzyl)-5,6,7,8-tetrahydrophthalazin-1(2H)-one] |
| 3 | O=C(c1cc(Cc2n[nH]c(=O)c3c2NCCC3)ccc1F)N1CCC(O)CC1 [Example 572, 8-{4-fluoro-3-[(4-hydroxypiperidin-1-yl)carbonyl]benzyl}-2,3,4,6-tetrahydropyrido[2,3-d]pyridazin-5(1H)-one] |
| 0.9 | Cc1cncc(N2CCN(C(=O)c3cc(Cc4n[nH]c(=O)c5c4NCCC5)ccc3F)CC2)n1 [Example 573, 8-(4-fluoro-3-{[4-(6-methylpyrazin-2-yl)piperazin-1-yl]carbonyl}benzyl)-2,3,4,6-tetrahydropyrido[2,3-d]pyridazin-5(1H)-one] |
| 1.3 | O=C(c1cc(Cc2n[nH]c(=O)c3c2CCCC3)ccc1F)N1CCN(S(=O)(=O)c2ccccc2)CC1 [Example 574, 4-(4-fluoro-3-{[4-(phenylsulfonyl)piperazin-1-yl]carbonyl}benzyl)-5,6,7,8-tetrahydrophthalazin-1(2H)-one] |
| 2 | O=C(c1cc(Cc2n[nH]c(=O)c3c2CCCC3)ccc1F)N1CCN(C2CCCC2)CC1 [Example 575, 4-{3-[(4-cyclopentylpiperazin-1-yl)carbonyl]-4-fluorobenzyl}-5,6,7,8-tetrahydrophthalazin-1(2H)-one] |
| 0.9 | O=C(c1cc(Cc2n[nH]c(=O)c3c2CCCC3)ccc1F)N1CCN(C(=O)N2CCCC2)CC1 [Example 576, 4-(4-fluoro-3-{[4-(pyrrolidine-1-ylcarbonyl)piperazin-1-yl]carbonyl}benzyl)-5,6,7,8-tetrahydrophthalazin-1(2H)-one] |
| 3 | O=C(c1cc(Cc2n[nH]c(=O)c3c2CCCC3)ccc1F)N1CCN(CCOc2ccccc2)CC1 [Example 577, 4-(4-fluoro-3-{[4-(2-phenoxyethyl)piperazin-1-yl]carbonyl}benzyl)-5,6,7,8-tetrahydrophthalazin-1(2H)-one] |
| 1 | CC(C)C(=O)N1CCN(C(=O)c2cc(Cc3n[nH]c(=O)c4c3CCCC4)ccc2F)CC1 [Example 579, 4-{4-fluoro-3-[(4-isobutyrylpiperazin-1-yl)carbonyl]benzyl}-5,6,7,8-tetrahydrophthalazin-1(2H)-one] |
| 1.8 | CCN1CCN(C(=O)c2cc(Cc3n[nH]c(=O)c4c3CCCC4)ccc2F)CC1 [Example 580, 4-{3-[(4-ethylpiperazin-1-yl)carbonyl]-4-fluorobenzyl}-5,6,7,8-tetrahydrophthalazin-1(2H)-one] |
| 2.3 | N[C@H]1CC(=O)N(c2cc(Cc3n[nH]c(=O)c4c3CCCC4)ccc2F)C1=O [Example 583, (3S)-3-amino-1-{2-fluoro-5-[(4-oxo-3,4,5,6,7,8-hexahydrophthalazin-1-yl)methyl]phenyl}pyrrolidine-2,5-dione] |
| 68 | CN1CCN(C(=O)Nc2cc(Cc3n[nH]c(=O)c4c3CCCC4)ccc2F)CC1 [Example 584, N-{2-fluoro-5-[(4-oxo-3,4,5,6,7,8-hexahydrophthalazin-1-yl)methyl]phenyl}-4-methylpiperazine-1-carboxamide] |
| 1.3 | CCC(=O)N1CCN(C(=O)c2cc(Cc3n[nH]c(=O)c4c3CCCC4)ccc2F)CC1 [Example 585, 4-{4-fluoro-3-[(4-propionylpiperazin-1-yl)carbonyl]benzyl}-5,6,7,8-tetrahydrophthalazin-1(2H)-one] |
| 1.1 | CCS(=O)(=O)N1CCN(C(=O)c2cc(Cc3n[nH]c(=O)c4c3CCCC4)ccc2F)CC1 [Example 586, 4-(3-{[4-(ethylsulfonyl)piperazin-1-yl]carbonyl}-4-fluorobenzyl)-5,6,7,8-tetrahydrophthalazin-1(2H)-one] |
| 1 | CC(C)(C)C(=O)N1CCN(C(=O)c2cc(Cc3n[nH]c(=O)c4c3CCCC4)ccc2F)CC1 [Example 587, 4-(3-[4-(2,2-dimethylpropanoyl)piperazin-1-yl]carbonyl-4-fluorobenzyl)-5,6,7,8-tetrahydrophthalazin-1(2H)-one] |
| 1.9 | O=C(COc1ccccc1)N1CCN(C(=O)c2cc(Cc3n[nH]c(=O)c4c3CCCC4)ccc2F)CC1 [Example 590, 4-(4-fluoro-3-{[4-(phenoxyacetyl)piperazin-1-yl]carbonyl}benzyl)-5,6,7,8-tetrahydrophthalazin-1(2H)-one] |

| Ki [nM] | SMILES |
| --- | --- |
| 0.5 | O=C(COc1ccccc1)N1CCN(C(=O)c2cc(Cc3n[nH]c(=O)c4c3NCCC4)ccc2F)CC1 [Example 591, 8-(4-fluoro-3-{[4-(phenoxyacetyl)piperazin-1-yl]carbonyl}benzyl)-2,3,4,6-tetrahydropyrido[2,3-d]pyridazin-5(1H)-one] |
| 1.3 | CC(C)(C)C(=O)N1CCN(C(=O)c2cc(Cc3n[nH]c(=O)c4c3NCCC4)ccc2F)CC1 [Example 593, 8-(3-{[4-(2,2-dimethylpropanoyl)piperazin-1-yl]carbonyl}-4-fluorobenzyl)-2,3,4,6-tetrahydropyrido[2,3-d]pyridazin-5(1H)-one] |
| 0.7 | CCS(=O)(=O)N1CCN(C(=O)c2cc(Cc3n[nH]c(=O)c4c3NCCC4)ccc2F)CC1 [Example 594] |
| 6 | CC(=O)N(C)C1CCN(C(=O)c2cc(Cc3n[nH]c(=O)c4c3NCCC4)ccc2F)C1 (stereo not drawn) [Example 595, N-(1-{2-fluoro-5-[(5-oxo-1,2,3,4,5,6-hexahydropyrido[2,3-d]pyridazin-8-yl)methyl]benzoyl}pyrrolidine-3-yl)-N-methylacetamide] |
| 6 | CCN(C(C)=O)C1CCN(C(=O)c2cc(Cc3n[nH]c(=O)c4c3NCCC4)ccc2F)C1 (stereo not drawn) [Example 596, N-ethyl-N-(1-{2-fluoro-5-[(5-oxo-1,2,3,4,5,6-hexahydropyrido[2,3-d]pyridazin-8-yl)methyl]benzoyl}pyrrolidine-3-yl)acetamide] |
| 0.8 | CCC(=O)N1CCN(C(=O)c2cc(Cc3n[nH]c(=O)c4c3NCCC4)ccc2F)CC1 [Example 597, 8-{4-fluoro-3-[(4-propionylpiperazin-1-yl)carbonyl]benzyl}-2,3,4,6-tetrahydropyrido[2,3-d]pyridazin-5(1H)-one] |
| 1.1 | COc1ccc(N2CCN(C(=O)c3cc(Cc4n[nH]c(=O)c5c4NCCC5)ccc3F)CC2)cc1 [Example 599, 8-(4-fluoro-3-{[4-(4-methoxyphenyl)piperazin-1-yl]carbonyl}benzyl)-2,3,4,6-tetrahydropyrido[2,3-d]pyridazin-5(1H)-one] |
| 0.7 | COc1ccc(S(=O)(=O)N2CCN(C(=O)c3cc(Cc4n[nH]c(=O)c5c4NCCC5)ccc3F)CC2)cc1 [Example 600, 8-[4-fluoro-3-({4-[(4-methoxyphenyl)sulfonyl]piperazin-1-yl}carbonyl)benzyl]-2,3,4,6-tetrahydropyrido[2,3-d]pyridazin-5(1H)-one] |
| 1.1 | COc1ccc(C(=O)N2CCN(C(=O)c3cc(Cc4n[nH]c(=O)c5c4NCCC5)ccc3F)CC2)cc1 [Example 601, 8-(4-fluoro-3-{[4-(4-methoxybenzoyl)piperazin-1-yl]carbonyl}benzyl)-2,3,4,6-tetrahydropyrido[2,3-d]pyridazin-5(1H)-one] |
| 3 | O=C(c1cc(Cc2n[nH]c(=O)c3c2NCCC3)ccc1F)N1CCN(c2cccc(C(F)(F)F)c2)CC1 [Example 602, 8-[4-fluoro-3-({4-[3-(trifluoromethyl)phenyl]piperazin-1-yl}carbonyl)benzyl]-2,3,4,6-tetrahydropyrido[2,3-d]pyridazin-5(1H)-one] |
| 15 | CN(C)CCCN1CCCN(C(=O)c2cc(Cc3n[nH]c(=O)c4c3NCCC4)ccc2F)C1 [Example 604, 8-(3-{[3-[3-(dimethylamino)propyl]tetrahydropyrimidin-1(2H)-yl]carbonyl}-4-fluorobenzyl)-2,3,4,6-tetrahydropyrido[2,3-d]pyridazin-5(1H)-one] |
| 32 | O=C1NC(Cc2ccccc2)C(=O)N1c1cc(Cc2n[nH]c(=O)c3c2NCCC3)ccc1F (stereo not drawn) [Example 605, 5-benzyl-3-{2-fluoro-5-[(5-oxo-1,2,3,4,5,6-hexahydropyrido[2,3-d]pyridazin-8-yl)methyl]phenyl}imidazolidine-2,4-dione] |
| 1.8 | O=C(c1ccccc1)C1CCN(C(=O)c2cc(Cc3n[nH]c(=O)c4c3NCCC4)ccc2F)CC1 [Example 609, 8-{3-[(4-benzoylpiperidin-1-yl)carbonyl]-4-fluorobenzyl}-2,3,4,6-tetrahydropyrido[2,3-d]pyridazin-5(1H)-one] |
| 1.7 | COc1ccc(C(=O)C2CCN(C(=O)c3cc(Cc4n[nH]c(=O)c5c4NCCC5)ccc3F)CC2)cc1 [Example 610, 8-(4-fluoro-3-{[4-(4-methoxybenzoyl)piperidin-1-yl]carbonyl}benzyl)-2,3,4,6-tetrahydropyrido[2,3-d]pyridazin-5(1H)-one] |
| 1.6 | O=C(c1ccc2cc[nH]c2c1)N1CCN(C(=O)c2cc(Cc3n[nH]c(=O)c4c3NCCC4)ccc2F)CC1 [Example 611, 8-(4-fluoro-3-{[4-(1H-indol-6-ylcarbonyl)piperazin-1-yl]carbonyl}benzyl)-2,3,4,6-tetrahydropyrido[2,3-d]pyridazin-5(1H)-one] |
| 1.8 | O=C(OCc1ccccc1)N1CCN(C(=O)c2cc(Cc3n[nH]c(=O)c4c3NCCC4)ccc2F)CC1 [Example 613, benzyl 4-{2-fluoro-5-[(5-oxo-1,2,3,4,5,6-hexahydropyrido[2,3-d]pyridazin-8-yl)methyl]benzoyl}piperazine-1-carboxylate] |

| SMILES | Ki [nM] |
| --- | --- |
| CN1CCN(CCNC(=O)c2cc(Cc3n[nH]c(=O)c4c3CCCC4)ccc2F)CC1 [Example 578, 2-fluoro-N-[2-(4-methylpiperazin-1-yl)ethyl]-5-[(4-oxo-3,4,5,6,7,8-hexahydrophthalazin-1-yl)methyl]benzamide] | 1.1 |
